In ChEMBL document CHEMBL1201862, “PubChem BioAssay data set” (2004):
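Exposure lasted 48 hours, with cells grown in 96-well plates and compounds tested at five concentrations. At the GI50, growth is halved.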 Calls of active or inactive are those of the source. Cut-off read from the data, not from the text of the source: active = GI50 up to about 1.1 µM and inactive = higher.

Assays:
Assay in all cases: inhibition of tumour cell growth, NCI panel, 48 h
MDA-MB-435 = system: MDA-MB-435
UACC-257 = system: UACC-257
SK-MEL-5 = system: SK-MEL-5
MDA-MB-231 = system: MDA-MB-231
NCI-H23 = system: NCI-H23
786-0 = system: 786-0
OVCAR-4 = system: OVCAR-4
TK-10 = system: TK-10
HT-29 = system: HT-29
NCI-H226 = system: NCI-H226
CCRF-CEM = system: CCRF-CEM
MDA-N = system: MDA-N
KM12 = system: KM12
OVCAR-8 = system: OVCAR-8
OVCAR-3 = system: OVCAR-3
SW-620 = system: SW-620
DU-145 = system: DU-145
Hs-578T = system: Hs-578T
SF-295 = system: SF-295
UACC-62 = system: UACC-62

Structure (SMILES)	GI50 (MDA-MB-435)	GI50 (UACC-257)	GI50 (SK-MEL-5)	GI50 (MDA-MB-231)	GI50 (NCI-H23)	GI50 (786-0)	GI50 (OVCAR-4)	GI50 (TK-10)	GI50 (HT-29)	GI50 (NCI-H226)	GI50 (CCRF-CEM)	GI50 (MDA-N)	GI50 (KM12)	GI50 (OVCAR-8)	GI50 (OVCAR-3)	GI50 (SW-620)	GI50 (DU-145)	GI50 (Hs-578T)	GI50 (SF-295)	GI50 (UACC-62)
O=C(O)c1cccc2cccc(-c3cccc4cccc(C(=O)O)c34)c12	> 100 µM (inactive)	> 100 µM (inactive)	> 100 µM (inactive)	> 100 µM (inactive)	> 100 µM (inactive)	> 100 µM (inactive)	> 100 µM (inactive)	> 100 µM (inactive)	> 100 µM (inactive)	> 100 µM (inactive)	> 100 µM (inactive)	> 100 µM (inactive)	> 100 µM (inactive)	> 100 µM (inactive)	> 100 µM (inactive)	> 100 µM (inactive)	> 100 µM (inactive)	> 100 µM (inactive)	> 100 µM (inactive)	> 100 µM (inactive)
CC(=O)Nc1cc(CN2CCCCC2)c(O)c2ncccc12	31.4 µM (inactive)	24.7 µM (inactive)	24.3 µM (inactive)	15.8 µM (inactive)	40.7 µM (inactive)	8.04 µM (inactive)	35.2 µM (inactive)	29 µM (inactive)	44.5 µM (inactive)	31.7 µM (inactive)	41.5 µM (inactive)	42 µM (inactive)	23.9 µM (inactive)	29.6 µM (inactive)	25.8 µM (inactive)	39.7 µM (inactive)	6.75 µM (inactive)	67.3 µM (inactive)	25.4 µM (inactive)	19.6 µM (inactive)
O=S(=O)(c1ccc(Cl)cc1)c1ccccc1C1=NCCN1	> 100 µM (inactive)	> 100 µM (inactive)	> 100 µM (inactive)	> 100 µM (inactive)	> 100 µM (inactive)	> 100 µM (inactive)	> 100 µM (inactive)	> 100 µM (inactive)	> 100 µM (inactive)	> 100 µM (inactive)	> 100 µM (inactive)	> 100 µM (inactive)	> 100 µM (inactive)	> 100 µM (inactive)	> 100 µM (inactive)	> 100 µM (inactive)	> 100 µM (inactive)	> 100 µM (inactive)	> 100 µM (inactive)	> 100 µM (inactive)
Brc1c2c(c(Br)c3nsnc13)N=S=N2	29.7 µM (inactive)	42.4 µM (inactive)	20 µM (inactive)	23.4 µM (inactive)	23.3 µM (inactive)	15.6 µM (inactive)	23.1 µM (inactive)	17.4 µM (inactive)	34.4 µM (inactive)	> 46.9 µM (inactive)	2.65 µM (inactive)	26.5 µM (inactive)	46.3 µM (inactive)	25.6 µM (inactive)	20.9 µM (inactive)	29 µM (inactive)	> 87.1 µM (inactive)	21 µM (inactive)	27.1 µM (inactive)	16.2 µM (inactive)
CC(C)(C)OC(=O)N1CCC2(C)CC(=O)CC=C12 (centres undefined)	> 100 µM (inactive)	28.2 µM (inactive)	> 100 µM (inactive)	> 100 µM (inactive)	> 100 µM (inactive)	> 100 µM (inactive)	> 100 µM (inactive)	> 100 µM (inactive)	> 100 µM (inactive)	> 100 µM (inactive)	27.2 µM (inactive)	> 100 µM (inactive)	> 100 µM (inactive)	> 100 µM (inactive)	> 100 µM (inactive)	67 µM (inactive)	> 100 µM (inactive)	> 100 µM (inactive)	> 100 µM (inactive)	> 100 µM (inactive)
CCOC(=O)n1cncc1CC(NC(=O)Cc1c(C(=O)C=C(C)C)[nH]c2ccccc12)C(=O)OC (centres undefined)	18.2 µM (inactive)	13.3 µM (inactive)	18 µM (inactive)	15.5 µM (inactive)	25.4 µM (inactive)	21.5 µM (inactive)	18.5 µM (inactive)	18.2 µM (inactive)	22.3 µM (inactive)	20.8 µM (inactive)	0.708 µM (active)	23 µM (inactive)	19.3 µM (inactive)	18.5 µM (inactive)	17.7 µM (inactive)	25.7 µM (inactive)	18.5 µM (inactive)	19.3 µM (inactive)	17.7 µM (inactive)	20.3 µM (inactive)
COc1ccc(/C=N/NS(=O)(=O)c2ccc(/C=C3\NC(=O)NC3=O)cc2)cc1	> 100 µM (inactive)	> 100 µM (inactive)	> 100 µM (inactive)	11.2 µM (inactive)	> 100 µM (inactive)	47.1 µM (inactive)	> 100 µM (inactive)	> 100 µM (inactive)	> 100 µM (inactive)	> 100 µM (inactive)	> 100 µM (inactive)	> 100 µM (inactive)	> 100 µM (inactive)	51.5 µM (inactive)	> 100 µM (inactive)	> 100 µM (inactive)	> 100 µM (inactive)	28.1 µM (inactive)	89.5 µM (inactive)	> 100 µM (inactive)
CN1CN(c2ccccc2)C2(CCN(CCCC3(c4cccs4)OCCO3)CC2)C1=O	> 100 µM (inactive)	> 100 µM (inactive)	91 µM (inactive)	> 100 µM (inactive)	77.6 µM (inactive)	> 100 µM (inactive)	> 100 µM (inactive)	> 100 µM (inactive)	36.1 µM (inactive)	> 100 µM (inactive)	> 100 µM (inactive)	> 100 µM (inactive)	> 100 µM (inactive)	> 100 µM (inactive)	> 100 µM (inactive)	> 100 µM (inactive)	> 100 µM (inactive)	> 100 µM (inactive)	> 100 µM (inactive)	> 100 µM (inactive)
COc1ccc2cc(C(=O)NCCCNC(=O)c3ccc4cc(OC)ccc4c3)ccc2c1	> 100 µM (inactive)	> 96.2 µM (inactive)	> 100 µM (inactive)	21.1 µM (inactive)	> 100 µM (inactive)	19.6 µM (inactive)	61 µM (inactive)	45.4 µM (inactive)	> 100 µM (inactive)	49.4 µM (inactive)	> 100 µM (inactive)	> 100 µM (inactive)	> 100 µM (inactive)	22.6 µM (inactive)	> 100 µM (inactive)	> 100 µM (inactive)	> 100 µM (inactive)	34.2 µM (inactive)	22.4 µM (inactive)	> 100 µM (inactive)
O=[N+]([O-])C(/C=C(\Cl)[N+](=O)[O-])=C(N1CCCCC1)N1CCCCC1	16.7 µM (inactive)	25.3 µM (inactive)	21.7 µM (inactive)	92 µM (inactive)	32.9 µM (inactive)	36.6 µM (inactive)	23.9 µM (inactive)	> 100 µM (inactive)	31.3 µM (inactive)	56.5 µM (inactive)	13.2 µM (inactive)	22.4 µM (inactive)	> 100 µM (inactive)	44.8 µM (inactive)	27.5 µM (inactive)		62.5 µM (inactive)	58.2 µM (inactive)	> 100 µM (inactive)	18.6 µM (inactive)
